Test results from PMC8537897, “Design, Synthesis and Biological Evaluation of Aromatase Inhibitors Based on Sulfonates and Sulfonamides of Resveratrol” (Pharmaceuticals, 2021).
Read-outs that look alike come from different tables or passages of the source.

How the values were obtained:
[1] = target: T1, human aromatase (Homo sapiens, UniProt P11511); experiment: Aromatase inhibition, fluorimetric assay kit (Aromatase-CYP19A Inhibitor Screening kit, BioVision); format: biochemical; conditions: for IC50: tested at concentrations from 0.01 to 100 μM, mean of triplicate determinations
T1 construct: purchased BioVision, Milpitas, CA, USA
T1 sequence (P11511 1-503): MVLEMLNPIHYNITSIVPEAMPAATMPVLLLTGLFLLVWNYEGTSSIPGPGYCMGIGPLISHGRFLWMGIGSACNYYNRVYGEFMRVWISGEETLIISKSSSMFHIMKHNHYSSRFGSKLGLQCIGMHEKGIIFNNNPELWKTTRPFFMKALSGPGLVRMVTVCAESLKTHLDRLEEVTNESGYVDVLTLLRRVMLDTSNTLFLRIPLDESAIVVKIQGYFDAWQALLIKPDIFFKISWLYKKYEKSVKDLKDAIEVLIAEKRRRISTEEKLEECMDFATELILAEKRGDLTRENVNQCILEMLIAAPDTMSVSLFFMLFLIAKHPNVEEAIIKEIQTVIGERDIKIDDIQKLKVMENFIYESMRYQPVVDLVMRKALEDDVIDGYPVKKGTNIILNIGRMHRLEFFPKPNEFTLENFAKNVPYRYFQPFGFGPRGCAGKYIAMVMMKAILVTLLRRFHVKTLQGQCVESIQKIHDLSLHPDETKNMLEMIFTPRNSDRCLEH
Protocol: The activity was measured each minute for 60 min and the value obtained for each compound after 10 min was chosen to calculate the percentage of the aromatase inhibition.
The aromatase inhibitory activity was determined using a commercial fluorimetric assay kit (Aromatase-CYP19A Inhibitor Screening kit, BioVision, Milpitas, CA, USA), as reported elsewhere. The assay utilizes a fluorogenic aromatase substrate that is converted into a highly fluorescent metabolite detected in the visible range (Ex/Em 488/527 nm). […] During the incubation, the Aromatase Substrate/NADP+ mixture was prepared, and the reaction was started by adding 30 µL of this solution to each well (aside from the background control), reaching a final reaction volume of 100 µL/well. The fluorescence emission (527 nm) was measured immediately (within 1 min) by means of a fluorometer equipped with a 488 nm filter (GloMax®-Multi Detection System, Promega, Madison, WI, USA) and afterwards monitored for 60 min. […] The assay was performed in the same experimental conditions used for the initial screening of compounds. Dose–response curves were fitted with GraphPad Prism 5.0 (GraphPad Software, San Diego, CA, USA).

[2] = test system: MCF7 breast cancer cell line; experiment: Cell metabolic activity / viability (MTT assay) on MCF7; format: cell-based, human; conditions: for IC50: MTT, tested 0 to 500 µM;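 on all read-outs here: MTT optical density read-out in human MCF7 cells, normalised to DMSO vehicle-treated cells as 100%, with IC50 derived from fitted concentration–response curves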
Protocol: Cell metabolic activity of HFF-1 and MCF7 cells was assessed by MTT (3-(4,5-Dimethylthiazol-2-yl)-2,5-Diphenyltetrazolium Bromide) test (Sigma Aldrich, Milan, Italy). […] After the established exposure times, cells were incubated with MTT (0.5 mg/mL) and the optical density was measured as reported elsewhere [63]. Results were expressed as the percentage of cells in the presence of vehicle (DMSO) set as 100% and each experiment was performed in triplicate (n = 3). Concentration–response curves and IC50 were fitted and calculated with GraphPad Prism 5.0 (GraphPad Software, San Diego, CA, USA).

[3] = test system: normal human skin fibroblast (HFF-1); experiment: Cell metabolic activity (MTT assay) on HFF-1; format: cell-based
Protocol: The compounds were then biologically characterized in terms of cytotoxicity occurrence (LDH released) on MCF7 cells. […] After 24 h of treatment, a dose-dependent decrease in cell metabolic activity can be registered for all the compounds with respect to DMSO alone. […] Similar results were obtained also after 72 h of treatment.
Human skin fibroblasts (HFF-1, CVCL_3285) and human breast cancer MCF7 (HTB-22™, CVCL_0031) were purchased from ATCC and maintained in Dulbecco’s modified Eagle’s medium (DMEM) high glucose (EuroClone, Milan, Italy) supplemented with 10% of fetal bovine serum (FBS) and 1% of penicillin/streptomycin (Gibco—Thermo Fisher Scientific, MD, USA).
Cell metabolic activity of HFF-1 and MCF7 cells was assessed by MTT (3-(4,5-Dimethylthiazol-2-yl)-2,5-Diphenyltetrazolium Bromide) test (Sigma Aldrich, Milan, Italy). […] After the established exposure times, cells were incubated with MTT (0.5 mg/mL) and the optical density was measured as reported elsewhere. Results were expressed as the percentage of cells in the presence of vehicle (DMSO) set as 100% and each experiment was performed in triplicate (n = 3). Concentration–response curves and IC50 were fitted and calculated with GraphPad Prism 5.0 (GraphPad Software, San Diego, CA, USA).

[4] = test system: MCF7 cells; experiment: Hematoxylin/eosin staining; format: cell-based, human; conditions: MCF7, 50 µM, 72 h, vs DMSO
Protocol: The effectiveness on MCF7 cells of compound 1c over the other compounds is confirmed by the hematoxylin/eosin staining (H&E) performed after 72 h of treatment at 50 µM. […] At a higher magnification (panels C and D), MCF7 cells show chromatin condensation (green arrows), as a typical sign of the initiation of cell death.
MCF7 cells were seeded (7 × 10^4 cells/well) in well glasses (Millicell® EZ slide, Merck Millipore, Burlington, MA, USA). After 24 h from seeding, cells were exposed to compound 1c at 50 µM for 72 h. Next, supernatants were removed, and cells were washed twice with PBS with calcium and magnesium (Euro Clone, Milan, Italy). MCF7 cells were fixed in the presence of p-formaldehyde 4% and stained with hematoxylin/eosin as reported elsewhere.

[5] = test system: MCF7 cells; experiment: Cytotoxicity test (lactate dehydrogenase release); format: cell-based, human; conditions: 24 h
Protocol: To assess whether the decrease in metabolic activity is a consequence of cytotoxic occurrence in the presence of compounds 1b, 1c, and 1j, lactate dehydrogenase (LDH) released from MCF7 was measured in response to loading concentrations of 0–250 µM after a 24 h exposure. […] It is, therefore, plausible to assume that all tested compounds exert their anti-proliferative effect on MCF7 cells through cytotoxic induction and 1c is the most promising compound, being active already at lower doses.
MCF7 cells were seeded and stimulated as previously described for the MTT test. After the exposure time, cell supernatants were collected, centrifuged at 450× g for 4 min, and stored on ice. In order to quantify the cytotoxicity of loading concentrations of compounds 1b, 1c, and 1j (0–250 µM), the CytoTox 96® Non-Radioactive Cytotoxicity Assay (Promega Corporation, Madison, WI, USA) was performed as previously reported. The results were normalized on MTT absorbances and expressed as fold increases on the LDH released by cultures in the presence of vehicle (DMSO) set as 1.

[6] = Chemical stability by RP-nano-LC at 37 °C; format: physicochemical; conditions: 72 h, 100 µg/mL; for Chemical stability, basic conditions: 0.1 mM sodium hydroxide solution pH 9, 37 °C; for Chemical stability, acidic conditions: 10 mM hydrochloric acid buffer pH 2.0, 37 °C
Text: The results were compared with corresponding sulfonamides 2b–c and 2j. […] Advantages including low consumption of mobile and stationary phases and minimal sample volumes make this analytical tool more cost-effective and eco-friendlier with respect to the conventional HPLC. In addition, the reduction in particle diameter and the use of short chromatographic capillary column allow rapid analyses in isocratic elution mode.
Due to the low solubility of some compounds in pure water, the study was performed in an aqueous solution containing ACN/H2O as mobile phase. These conditions led to the chromatographic separation of each compound within 6 min. […] The analyses were performed with a nano-LC apparatus at appropriate intervals for 72 h, maintaining the prepared samples at a temperature of 37 °C.
Detection wavelength was set at 206 nm, and data were collected using ClarityTM Advanced Chromatography Software (Data Apex Ltd., Prague, Czech Republic).
To reduce the flow rate from µ- to nL/min, the HPLC pump delivering MeOH continuously and the injector were connected to a passive split-flow system. For this purpose, both the HPLC pump and injection valve were joined to a stainless-steel T-piece (Vici, Valco, Houston, TX, USA) by means of 500 µm id stainless steel tubes with lengths of 50 and 5 cm, respectively. The third entrance of the T-piece was connected to the MeOH reservoir of the pump through a fused silica capillary (50 µm id × 50 cm), achieving continuous recycling of the organic solvent. To minimize the dead volume and consequently reduce the band broadening effect, the capillary column was directly inserted into the modified injector, which was used for both sample loading and mobile phase reservoir. Samples and mobile phases were introduced into the capillary column through the injection valve by filling the loop with the sample solutions, switching the valve for the appropriate time, and then flushing the loop with the mobile phase. The analysis started immediately after positioning the injector device in the injection mode. […] In the optimized conditions, the flow rate of the column was about 450 nL/min. Nano-LC experiments were performed in uncoated fused silica capillaries (100 μm internal diameter) from Composite Metal Services, Hallow, UK), packed in our laboratory following the slurry packing procedure as described previously. The capillary column was packed with ChromSpher C18, 3 μm particle size (Varian, Palo Alto, CA, USA) for 15 cm.
Chromatographic conditions and standards preparation were as follows: the nano-LC analyses were performed in the capillary column employing as mobile phase a mixture of ACN/H2O ([…]) containing a 10 mM sodium hydrocarbonate buffer, pH 8.5. […]

[7] = Homo sapiens, MCF7, 24 h, 24 h, read-out: MCF7 Cells IC50 24 h
[8] = Homo sapiens, MCF7, 72 h, 72 h, read-out: MCF7 Cells IC50 72 h

## Cc1ccc(S(=O)(=O)Oc2ccc(/C=C/c3ccccc3)cc2)cc1[N+](=O)[O-] [1c, 4-[(E)-2-Phenylvinyl]phenyl 4-methyl-3-nitrobenzenesulfonate]
[1]
  inhibition at 1 µM: 91%
  IC50: 3.17 µM
[1]; compared to RSV
  Potency in inhibiting aromatase relative to RSV: twentyfold more potent than RSV
[2]; [7]
  IC50: 29.2 µM
[2]; [8]
  IC50: 40 µM
[2]; MCF7, 10 µM, 24 h
  Viability (% of control) - 24 h: 85.23 ± 1.29 % of control
[2]; MCF7, 10 µM, 72 h
  Viability (% of control) - 72 h: 96.62 ± 6.99 % of control
[2]; MCF7, 25 µM, 24 h
  Viability (% of control) - 24 h: 73.08 ± 2.67 % of control
[2]; MCF7, 25 µM, 72 h
  Viability (% of control) - 72 h: 91.88 ± 5.31 % of control
[2]; MCF7, 50 µM, 24 h
  Viability (% of control) - 24 h: 37.39 ± 0.66 % of control
[2]; MCF7, 50 µM, 24 h, DMSO alone = 100%
  Metabolically active cells: around 60%
[2]; MCF7, 50 µM, 72 h
  Viability (% of control) - 72 h: 46.19 ± 1.67 % of control
[2]; MCF7, 100 µM, 24 h
  Viability (% of control) - 24 h: 36.17 ± 1.56 % of control
[2]; MCF7, 100 µM, 72 h
  Viability (% of control) - 72 h: 35.22 ± 2.21 % of control
[2]; MCF7, 250 µM, 24 h
  Viability (% of control) - 24 h: 38.64 ± 1.23 % of control
[2]; MCF7, 250 µM, 72 h
  Viability (% of control) - 72 h: 38.30 ± 4.07 % of control
[2]; MCF7, 500 µM, 24 h
  Viability (% of control) - 24 h: 34.30 ± 1.43 % of control
[2]; MCF7, 500 µM, 72 h
  Viability (% of control) - 72 h: 15.08 ± 0.67 % of control
[2]; 24 h, read-out: MCF7 Cells IC50 24 h
  IC50: 29.2 ± 1.9 µM
[2]; 72 h, read-out: MCF7 Cells IC50 72 h
  IC50: 39.9 ± 2.1 µM
[3]; 0–250 µM, 24 and 72 h
  HFF-1 viability (in words): significant reduction in viability only at the maximum concentration and after 72 h of treatment
[3]; HFF-1 vs MCF7, after 24 h
  Selectivity index (SI) over normal fibroblasts: 1.82
[4]
  Cell number by H&E staining (in words): cell number is dramatically decreased
[5]; MCF7, 0–250 µM
  LDH release, dose dependence (in words): raises only at the highest concentration administered (250 µM)
[5]; MCF7, 50 µM
  LDH released, fold vs vehicle (DMSO) set as 1: three folds more
[5]; MCF7, 250 µM
  LDH released, fold vs vehicle (DMSO) set as 1: almost five folds more

## O=S(=O)(Cc1ccccc1)Oc1ccc(/C=C/c2ccccc2)cc1 [1j, 4-[(E)-2-Phenylvinyl]phenyl phenylmethanesulfonate]
[1]
  inhibition at 1 µM: 100%
  IC50: 2.21 µM
[6]
  Chemical stability, basic conditions: highly degraded because of their precipitation in the basic solution
  Chemical stability, acidic conditions: stable over the entire range of time
[2]; [7]
  IC50: > 250 µM
[2]; [8]
  IC50: > 250 µM
[2]; MCF7, 10 µM, 24 h
  Viability (% of control) - 24 h: 85.47 ± 6.41 % of control
[2]; MCF7, 10 µM, 72 h
  Viability (% of control) - 72 h: 96.53 ± 7.12 % of control
[2]; MCF7, 25 µM, 24 h
  Viability (% of control) - 24 h: 86.33 ± 14.64 % of control
[2]; MCF7, 25 µM, 72 h
  Viability (% of control) - 72 h: 95.30 ± 7.88 % of control
[2]; MCF7, 50 µM, 24 h
  Viability (% of control) - 24 h: 70.06 ± 3.80 % of control
[2]; MCF7, 50 µM, 72 h
  Viability (% of control) - 72 h: 87.57 ± 5.26 % of control
[2]; MCF7, 100 µM, 24 h
  Viability (% of control) - 24 h: 74.91 ± 9.24 % of control
[2]; MCF7, 100 µM, 72 h
  Viability (% of control) - 72 h: 72.67 ± 3.46 % of control
[2]; MCF7, 250 µM, 24 h
  Viability (% of control) - 24 h: 51.84 ± 3.08 % of control
[2]; MCF7, 250 µM, 72 h
  Viability (% of control) - 72 h: 69.54 ± 4.11 % of control
[2]; MCF7, 500 µM, 24 h
  Viability (% of control) - 24 h: 38.88 ± 5.23 % of control
[2]; MCF7, 500 µM, 72 h
  Viability (% of control) - 72 h: 46.31 ± 4.73 % of control

## O=S(=O)(Cc1ccccc1)Nc1ccc(/C=C/c2ccccc2)cc1 [2j, 1-Phenyl-N-{4-[(E)-2-phenylvinyl]phenyl}methanesulfonamide]
[6]
  Chemical stability, basic conditions: highly degraded because of their precipitation in the basic solution
  Chemical stability, acidic conditions: stable over the entire range of time
